Test results: ChEMBL document CHEMBL1136192, “Cyclin-dependent kinase 4 inhibitors as a treatment for cancer. Part 2: identification and optimisation of substituted 2,4-bis anilino pyrimidines” (Bioorg Med Chem Lett, 2003)
pIC50: −log10 of the molar value.

What was measured:
[1] = biological target: Cyclin-dependent kinase 2 (Homo sapiens, UniProt P24941); assay: Inhibitory concentration against cyclin-dependent kinase 2
[2] = biological target: Cyclin-dependent kinase 4 (Homo sapiens, UniProt P11802); assay: Inhibitory concentration against cyclin-dependent kinase 4
Chain of Cyclin-dependent kinase 4 (P11802 whole entry): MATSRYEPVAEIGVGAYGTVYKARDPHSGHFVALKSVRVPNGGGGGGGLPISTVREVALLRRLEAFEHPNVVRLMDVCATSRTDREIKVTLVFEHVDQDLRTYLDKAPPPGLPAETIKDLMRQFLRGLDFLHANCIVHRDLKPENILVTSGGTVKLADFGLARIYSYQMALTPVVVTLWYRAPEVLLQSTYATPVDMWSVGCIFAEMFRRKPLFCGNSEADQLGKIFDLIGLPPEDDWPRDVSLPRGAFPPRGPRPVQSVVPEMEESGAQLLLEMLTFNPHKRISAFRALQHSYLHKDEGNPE

Row | Structure (SMILES) | pIC50 [1] | pIC50 [2]
1 | Cc1ccc(Cl)c(Nc2cc(Nc3ccc(OCC(O)CN(C)C)cc3)ncn2)c1 (stereo not drawn) | 4.66 | 5.70
2 | COc1ccc(Nc2ccnc(Nc3ccc(OCC(O)CN(C)C)cc3)n2)cc1 (stereo not drawn) | 4.44 | 5.70
3 | CN(C)CC(O)COc1ccc(Nc2nccc(N(CCC#N)c3cc(Cl)ccc3Cl)n2)cc1 (stereo not drawn) | 5.52 | 6.52
4 | Cc1cnc(Nc2ccc(OCC(O)CN(C)C)cc2)nc1Nc1ccccc1 (stereo not drawn) | 5.10 | 6.10
5 | CN(C)CC(O)COc1ccc(Nc2nccc(Nc3cc(C(F)(F)F)ccc3F)n2)cc1 (stereo not drawn) | 6.00 | 6.22
6 | CN(C)CC(O)COc1ccc(Nc2nccc(N(CCCC(F)(F)F)c3cc(Cl)ccc3Cl)n2)cc1 (stereo not drawn) | 4.92 | 6.70
7 | CN(C)CC(O)COc1ccc(Nc2nccc(Nc3ccccc3)n2)cc1 (stereo not drawn) | 4.47 | 5.70
8 | Cc1ccc(Nc2cc(Nc3ccc(OCC(O)CN(C)C)cc3)ncn2)cc1 (stereo not drawn) | < 4.00 | 4.60
9 | CN(C)CC(O)COc1ccc(Nc2nccc(Nc3cccc(Cl)c3)n2)cc1 (stereo not drawn) | 5.30 | 5.70
10 | C#CCN(c1ccnc(Nc2ccc(OCC(O)CN(C)C)cc2)n1)c1cc(Cl)ccc1Cl (stereo not drawn) | 5.70 | 6.70
11 | CN(C)CC(O)COc1ccc(Nc2ncc(Br)c(Nc3ccccc3)n2)cc1 (stereo not drawn) | 6.52 | 7.00
12 | Cc1ccc(Cl)c(Nc2ccnc(Nc3ccc(OCC(O)CN(C)C)cc3)n2)c1 (stereo not drawn) | 5.30 | 5.70

Now from value to molecule:

Row | pIC50 [1] | pIC50 [2] | Structure (SMILES)
13 | 6.30 | 7.00 | CN(C)CC(O)COc1ccc(Nc2ncc(Cl)c(Nc3ccccc3)n2)cc1 (stereo not drawn)
14 | 4.82 | 4.72 | COc1ccccc1Nc1ccnc(Nc2ccc(OCC(O)CN(C)C)cc2)n1 (stereo not drawn)
15 | 5.15 | 6.00 | CN(C)CC(O)COc1ccc(Nc2nccc(Nc3ccccc3F)n2)cc1 (stereo not drawn)
16 | 6.00 | 6.10 | CN(C)CC(O)COc1ccc(Nc2nccc(Nc3cc(Cl)ccc3Cl)n2)cc1 (stereo not drawn)
17 | 5.70 | 6.15 | Cc1ccc(F)c(Nc2ccnc(Nc3ccc(OCC(O)CN(C)C)cc3)n2)c1 (stereo not drawn)
18 | 5.22 | 6.00 | CN(C)CC(O)COc1ccc(Nc2nccc(Nc3ccccc3Cl)n2)cc1 (stereo not drawn)
19 | < 4.00 | 4.24 | COc1ccc(Nc2cc(Nc3ccc(OCC(O)CN(C)C)cc3)ncn2)cc1 (stereo not drawn)
20 | < 5.00 | 6.00 | CN(C)CC(O)COc1ccc(Nc2nccc(N(Cc3ccccc3)c3cc(Cl)ccc3Cl)n2)cc1 (stereo not drawn)
21 | 5.15 | 6.00 | CN(C)CC(O)COc1ccc(Nc2nccc(Nc3ccccc3Br)n2)cc1 (stereo not drawn)
22 | < 4.00 | 4.39 | CN(C)CC(O)COc1ccc(Nc2cc(Nc3ccc(Cl)cc3)ncn2)cc1 (stereo not drawn)
23 | 4.09 | 5.40 | Cc1ccc(F)c(Nc2cc(Nc3ccc(OCC(O)CN(C)C)cc3)ncn2)c1 (stereo not drawn)
24 | 6.70 | 8.00 | CN(C)CC(O)COc1ccc(Nc2ncc(Br)c(N(CCCC(F)(F)F)c3ccccc3)n2)cc1 (stereo not drawn)
25 | 6.15 | 7.00 | CN(C)CC(O)COc1ccc(Nc2nccc(N(CC#N)c3cc(Cl)ccc3Cl)n2)cc1 (stereo not drawn)
26 | 4.74 | 6.00 | CN(C)CC(O)COc1ccc(Nc2nccc(Nc3ccc(Cl)cc3)n2)cc1 (stereo not drawn)
27 | < 5.00 | 6.52 | CN(C)CC(O)COc1ccc(Nc2ncc(F)c(Nc3ccccc3)n2)cc1 (stereo not drawn)
28 | 4.59 | 5.70 | Cc1ccc(Nc2ccnc(Nc3ccc(OCC(O)CN(C)C)cc3)n2)cc1 (stereo not drawn)
29 | 5.40 | 5.70 | CN(C)CC(O)COc1ccc(Nc2nccc(Nc3ccccc3C#N)n2)cc1 (stereo not drawn)
